Values quoted from earlier work, collected in patent US20150190331A1, “NAIL LACQUER COMPOSITION WITH HYPOSENSITIVITY” (Pakaly Enterprise Co., Ltd., priority 2014, published 2015).

Test system: guinea pigs
Details: in guinea pigs; International Journal of Toxicology 24(Suppl 5): 53-100, 2005

Molecule	sensitizer strength
C=C(C)C(=O)OCCCC [Butyl Methacrylate]	moderate sensitizers
C=C(C)C(=O)OC1CCCCC1 [Cyclohexyl Methacrylate]	moderate sensitizers
C=C(C)C(=O)OCCO [HEMA, hydroxyethylmethacrylate]	strong sensitizers
C=C(C)C(=O)OCCCCCC [Hexyl Methacrylate]	moderate sensitizers
C=C(C)C(=O)OCCCO [Hydroxypropyl Methacrylate]	weak sensitizer
C=C(C)C(=O)OCC(O)COc1ccc(C(C)(C)c2ccc(OCC(O)COC(=O)C(=C)C)cc2)cc1 (centres unmarked) [Isopropylidenediphenyl Bisglycidyl Methacrylate]	strong sensitizers
C=C(C)C(=O)OCCCCCCCCCCCC [Lauryl Methacrylate]	strong sensitizers
C=C(C)C(=O)OCCOCCOCCOC(=O)C(=C)C [Triethylene Glycol Dimethacrylate]	not sensitizers
C=C(C)C(=O)OCC(CC)(COC(=O)C(=C)C)COC(=O)C(=C)C [Trimethylolpropane Trimethacrylate]	strong sensitizers
PEG-4 Dimethacrylate	not sensitizers
Urethane Methacrylate	moderate sensitizers
